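Five concentrations, 48 hours, 96-well plates. GI50 = concentration required for 50% inhibition of growth.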 Activity calls are given as the source filed them. Cut-off read from the data, not from the text of the source: active = GI50 up to about 1.1 µM and inactive = higher.

Assay in all cases: NCI tumour cell line growth inhibition, 48 h
The test system of assay [1] is SN12C.
The subject of assay [2] is A549.
For assay [3], the system named is OVCAR-3.
Assay [4] relates to MDA-N.
Assay [5] concerns SR.
Assay [6] concerns EKVX.
Assay [7] relates to OVCAR-8.
The subject of assay [8] is RXF 393.
The test system of assay [9] is NCI-H522.
For assay [10], the system named is TK-10.
The test system of assay [11] is MCF7.
Assay [12] concerns U-251.
The subject of assay [13] is MDA-MB-435.
Assay [14] concerns DU-145.
For assay [15], the system named is MOLT-4.
In assay [16] the test system is HCT-116.
Assay [17] concerns HOP-62.
Assay [18] has as its system OVCAR-4.
Assay [19] relates to NCI-H460.

Consider `COc1c(-c2ccc(F)cc2)oc2c(CC(=O)O)cccc2c1=O`, for which the GI50 in assay [1], in assay [2], in assay [3], in [4], in assay [5] and in [6] was > 100 µM (inactive) throughout. The GI50 in [7], in assay [8], in [9], in assay [10], in [11] and in assay [12] was > 100 µM (inactive) each time. Moreover, the GI50 in [13], in assay [14], in assay [15], in assay [16] and in [17] was > 100 µM (inactive) throughout.
In the case of `CC(=O)OCCOCn1c2c(c(=S)[nH]c1=O)CCC2`, the GI50 in assay [1], in assay [2], in assay [3], in assay [4], in assay [5] and in [6] was > 100 µM (inactive) each time. For the same molecule, the GI50 in assay [7], in assay [8], in assay [9], in assay [10], in assay [11] and in assay [12] was > 100 µM (inactive) each time. Besides, the GI50 in assay [13], in assay [14], in assay [15], in assay [18], in [16] and in [17] was > 100 µM (inactive) in each case.
Regarding `CCOC(=O)CC1C(C(=O)OCC)=Cn2c([nH]c3cccc4cccc2c43)=C1C(=O)OCC` (stereo not given), the GI50 in [1], in assay [2], in assay [3], in assay [4], in assay [5] and in assay [6] was > 100 µM (inactive) each time. The GI50 in [7], in assay [8], in assay [19], in assay [10], in assay [11] and in assay [12] was > 100 µM (inactive) throughout. Also, the GI50 is 54.3 µM (inactive) in [13]; > 100 µM (inactive) in assay [14]; > 100 µM (inactive) in assay [15]; > 100 µM (inactive) in assay [18]; > 100 µM (inactive) in assay [16]; > 100 µM (inactive) in assay [17].
`COc1ccc(/C(=N/O)c2ccccc2C2=Nc3ccccc3C(NCc3ccccc3)O2)cc1C` (stereo not given): the GI50 in assay [1] is 22.9 µM (inactive); in assay [2], 49 µM (inactive); in assay [3], 45.7 µM (inactive); in [4], 34.7 µM (inactive); in assay [5], 32.6 µM (inactive); in assay [6] it was 74.5 µM (inactive). Also, the GI50 was 27.2 µM (inactive) in assay [7]; 47.3 µM (inactive) in [8]; 29.9 µM (inactive) in assay [19]; 34 µM (inactive) in [9]; 29.2 µM (inactive) in [11]; 30.5 µM (inactive) in [12]. Further, the GI50 in assay [13] was 27.2 µM (inactive); in assay [14] it was 69.8 µM (inactive); in [15], 29.5 µM (inactive); in assay [16], 25.8 µM (inactive); in assay [17] it was 31.1 µM (inactive).
On to `COC(=O)CSSCc1ccc([N+](=O)[O-])cc1`, for which the GI50 in assay [1] is 14.8 µM (inactive); in assay [2] it was 25.5 µM (inactive); in [3], 18.5 µM (inactive); in assay [4], 14.7 µM (inactive); in [5], 12 µM (inactive); in assay [6], 28.2 µM (inactive). Besides, the GI50 in assay [7] was 28.6 µM (inactive); in [8], 18.4 µM (inactive); in assay [19] it was 33.7 µM (inactive); in assay [9], 13.4 µM (inactive); in assay [10], 16.2 µM (inactive); in assay [11], 7.33 µM (inactive). In addition, the GI50 is 12.3 µM (inactive) in assay [12]; 13.9 µM (inactive) in assay [13]; 19.5 µM (inactive) in assay [14]; 3.93 µM (inactive) in [15]; 12.2 µM (inactive) in [16]; 20.1 µM (inactive) in [17].
As for `C=CCN1C(=O)C[C@H](Cc2ccccc2)NC(=O)C[C@H](Cc2ccccc2)N(CC=C)C(=O)C[C@H](Cc2ccccc2)NC(=O)C[C@@H]1Cc1ccccc1`, the GI50 was 5.7 µM (inactive) in assay [1]; 4.83 µM (inactive) in [2]; 87.7 µM (inactive) in assay [3]; 8.91 µM (inactive) in assay [4]; 5.16 µM (inactive) in assay [5]; 0.942 µM (active) in assay [6]. Moreover, the GI50 in [7] is 39.4 µM (inactive); in [8] it was 7.14 µM (inactive); in assay [19] it was 5.42 µM (inactive); in [10], 8.79 µM (inactive); in [11] it was 4.04 µM (inactive); in assay [12] it was 12.9 µM (inactive). The GI50 in assay [13] is 5.93 µM (inactive); in assay [14] it was > 100 µM (inactive); in assay [15], 2.69 µM (inactive); in [18], 4.6 µM (inactive); in assay [16], 14.8 µM (inactive); in assay [17], 51.8 µM (inactive).
With `O=S1(=O)OCCOS(=O)(=O)C1F`, the GI50 in assay [1], in [2], in assay [3], in assay [4], in assay [5] and in assay [6] was > 100 µM (inactive) throughout. For the same molecule, the GI50 in assay [7], in assay [8], in assay [9], in assay [10], in assay [11] and in assay [12] was > 100 µM (inactive) throughout. The GI50 in assay [13], in [14], in [15], in assay [18], in [16] and in assay [17] was > 100 µM (inactive) throughout.
For `COC(=O)C(CCc1ccccc1I)C1=CCC2(CC1)OCCO2` (stereo not given), the GI50 in [2] is 31 µM (inactive); in assay [3], 29.4 µM (inactive); in assay [4], 24.2 µM (inactive); in assay [5] it was 36.2 µM (inactive); in assay [6], 70.8 µM (inactive); in assay [7], 42 µM (inactive). Moreover, the GI50 in assay [8] was 17.9 µM (inactive); in [19], 65.8 µM (inactive); in assay [9], 18.7 µM (inactive); in [10] it was 38.3 µM (inactive); in [11], 32.7 µM (inactive); in assay [12] it was 61.8 µM (inactive). The GI50 is 27.1 µM (inactive) in assay [13]; 73.8 µM (inactive) in assay [14]; 49.8 µM (inactive) in [15]; 40.1 µM (inactive) in assay [18]; 70.1 µM (inactive) in assay [17].
As for `N#CCCN(C(=O)Nc1ccc(NC(=O)N(CCC#N)c2ccccc2)cc1)c1ccccc1`, the GI50 in [1], in [2], in [3], in assay [4], in assay [5] and in assay [6] was > 100 µM (inactive) throughout. Also, the GI50 in assay [7] is > 100 µM (inactive); in assay [8], 92.7 µM (inactive); in assay [19], > 100 µM (inactive); in assay [9], > 100 µM (inactive); in [11] it was > 100 µM (inactive); in assay [12] it was > 100 µM (inactive). The GI50 in assay [13], in assay [14], in assay [15], in assay [18], in [16] and in assay [17] was > 100 µM (inactive) each time.
For the molecule `Cc1nc2c(sc(=S)n2-c2ccccc2)c2nc3ncccc3n12`, the GI50 in [1] was 46.2 µM (inactive); in assay [2], > 100 µM (inactive); in assay [3], > 100 µM (inactive); in assay [4], > 100 µM (inactive); in [5], > 100 µM (inactive); in [6], > 100 µM (inactive). Also, the GI50 in assay [7] is > 100 µM (inactive); in assay [8], 34.8 µM (inactive); in assay [19], > 100 µM (inactive); in assay [9], > 100 µM (inactive); in assay [10] it was 33.7 µM (inactive); in assay [11] it was > 100 µM (inactive). Further, the GI50 in assay [12] is 32.6 µM (inactive); in assay [13] it was > 100 µM (inactive); in [14], > 100 µM (inactive); in assay [15], > 100 µM (inactive); in [16], > 100 µM (inactive); in assay [17], 25 µM (inactive).
Turning to `Cc1nn2c(N)cc(=O)nc2nc1/C=C/c1ccc(N(C)C)cc1`, the GI50 in assay [1] is > 65.6 µM (inactive); in assay [2], 16.9 µM (inactive); in assay [4], 5.82 µM (inactive); in [5] it was > 100 µM (inactive); in [6], 7.23 µM (inactive); in [7], > 25.2 µM (inactive). Moreover, the GI50 in [8] was 98.6 µM (inactive); in assay [19], 6.89 µM (inactive); in assay [9], 1.66 µM (inactive); in assay [10], > 100 µM (inactive); in assay [11] it was 3.92 µM (inactive); in [12] it was > 22.1 µM (inactive). Also, the GI50 was 7.93 µM (inactive) in assay [13]; > 100 µM (inactive) in assay [14]; > 52 µM (inactive) in [15]; > 26.5 µM (inactive) in assay [18]; 12 µM (inactive) in assay [16]; 9.55 µM (inactive) in [17].

These data come from ChEMBL document CHEMBL1201862, “PubChem BioAssay data set” (2004).
